Reference: ChEMBL document CHEMBL4665622, “Repurposing ibuprofen to control Staphylococcus aureus biofilms” (2019)
Converted amounts (≈) assume the structure as drawn. The source made the active and inactive calls. No cut-off for these calls is given here.

Assays:
Staphylococcus aureus [1] = assay: Antibacterial activity against Staphylococcus aureus XU212 assessed as reduction in bacterial growth incubated for 24 hrs by broth microdilution method; type: functional
Cell membrane [2] = assay: Effect on surface tension of Staphylococcus aureus CECT 976 assessed as Lifshitz-van der Waals at 0.25 times of MIC incubated for 1 hr (reference value: 40.5 +/- 0.0 mJ/m2); type: subcellular
Staphylococcus aureus [3] = assay: Antibiofilm activity against Staphylococcus aureus CECT 976 preform-matured biofilm assessed as increase in biofilm removal at 5 times of MIC incubated for 6 hrs relative to control; type: functional
Streptococcus pneumoniae = assay: Inhibition of biofilm formation in Streptococcus pneumoniae incubated for 24 hrs by crystal violet staining based assay relative to control; type: functional
Staphylococcus aureus [4] = assay: Antibiofilm activity against Staphylococcus aureus SA1199B preform-matured biofilm assessed as increase in biofilm removal at 5 and 10 times of MIC incubated upto 24 hrs relative to control; type: functional; details: time hrs <=24
Cell membrane [5] = assay: Disruption of cytoplasmic membrane integrity in Staphylococcus aureus CECT 976 assessed as potassium ion release at MBC incubated for 1 hr by flame emission and atomic absorption spectroscopy (reference value: 0 mg/L); type: subcellular
Staphylococcus aureus [6] = assay: Antibiofilm activity against Staphylococcus aureus SA1199B preform-matured biofilm assessed as reduction in CFU at 5 and 10 times of MIC incubated upto 24 hrs relative to control; type: functional; design: scale not given: the % may be the effect or the level left; details: time hrs <=24
Staphylococcus aureus [7] = assay: Inhibition of cell adhesion in Staphylococcus aureus CECT 976 assessed as decrease in CFU at 10 times of MIC incubated upto 24 hrs relative to control; type: functional; details: time hrs <=24
Staphylococcus aureus [8] = assay: Antibiofilm activity against Staphylococcus aureus CECT 976 preform-matured biofilm assessed as increase in biofilm removal at MIC incubated for 6 hrs relative to control; type: functional
Cell membrane [9] = assay: Effect on surface tension of Staphylococcus aureus CECT 976 assessed as Lifshitz-van der Waals at 0.5 times of MIC incubated for 1 hr (reference value: 40.5 +/- 0.0 mJ/m2); type: subcellular
Escherichia coli = assay: Inhibition of biofilm formation in Escherichia coli incubated for 24 hrs by crystal violet staining based assay relative to control; type: functional
Staphylococcus aureus [10] = assay: Antibacterial activity against Staphylococcus aureus assessed as reduction in bacterial growth at pH 6 incubated for 24 hrs by broth microdilution method; type: functional
Staphylococcus aureus [11] = assay: Antibiofilm activity against Staphylococcus aureus CECT 976 preform-matured biofilm assessed as increase in biofilm removal at 10 times of MIC incubated for 6 hrs relative to control; type: functional
Cell membrane [12] = assay: Disruption of cytoplasmic membrane integrity in Staphylococcus aureus CECT 976 assessed as potassium ion release at MIC incubated for 1 hr by flame emission and atomic absorption spectroscopy (reference value: 0 mg/L); type: subcellular
Cell membrane [13] = assay: Effect on surface tension of Staphylococcus aureus CECT 976 assessed as electron donor component at 0.5 times of MIC incubated for 1 hr (reference value: 55 +/- 0.9 mJ/m2); type: subcellular
Staphylococcus aureus [14] = assay: Antibacterial activity against Staphylococcus aureus CECT 976 assessed as reduction in bacterial growth incubated for 24 hrs by broth microdilution method; type: functional
Cell membrane [15] = assay: Disruption of cytoplasmic membrane integrity in Staphylococcus aureus CECT 976 assessed as potassium ion release at 0.5 times of MIC incubated for 1 hr by flame emission and atomic absorption spectroscopy (reference value: 0 mg/L); type: subcellular
Staphylococcus aureus [16] = assay: Antibiofilm activity against Staphylococcus aureus XU212 preform-matured biofilm assessed as increase in biofilm inactivation upto 10 times of MIC incubated upto 24 hrs relative to control; type: functional; details: time hrs <=24
Staphylococcus aureus [17] = assay: Antibacterial activity against Staphylococcus aureus assessed as reduction in bacterial growth at pH 7 incubated for 24 hrs by broth microdilution method; type: functional
Cell membrane [18] = assay: Effect on surface tension of Staphylococcus aureus CECT 976 assessed as Lewis acid-base at 0.5 times of MIC incubated for 1 hr (reference value: 10.5 +/- 1.3 mJ/m2); type: subcellular
Staphylococcus aureus [19] = assay: Antibiofilm activity against Staphylococcus aureus XU212 preform-matured biofilm assessed as increase in biofilm removal at MIC incubated upto 24 hrs relative to control; type: functional; details: time hrs <=24
Staphylococcus aureus [20] = assay: Antibiofilm activity against Staphylococcus aureus RN4220 preform-matured biofilm assessed as increase in biofilm removal at 5 and 10 times of MIC incubated upto 24 hrs relative to control; type: functional; details: time hrs <=24
Staphylococcus aureus [21] = assay: Antibiofilm activity against Staphylococcus aureus RN4220 preform-matured biofilm assessed as increase in biofilm inactivation upto 10 times of MIC incubated upto 24 hrs relative to control; type: functional; details: time hrs <=24
Staphylococcus aureus [22] = assay: Inhibition of cell adhesion in Staphylococcus aureus CECT 976 assessed as decrease in biomass content at upto 10 times of MIC incubated upto 24 hrs relative to control; type: functional; details: time hrs <=24
Staphylococcus aureus [23] = assay: Bactericidal activity against Staphylococcus aureus RN4220 assessed as reduction in bacterial growth incubated for 24 hrs by broth microdilution method; type: functional
Staphylococcus aureus [24] = assay: Bactericidal activity against Staphylococcus aureus CECT 976 incubated for 24 hrs by broth microdilution method; type: functional
Staphylococcus aureus [25] = assay: Antibacterial activity against Staphylococcus aureus assessed as reduction in bacterial growth at pH 5 incubated for 24 hrs by broth microdilution method; type: functional
Staphylococcus aureus [26] = assay: Antibiofilm activity against Staphylococcus aureus RN4220 preform-matured biofilm assessed as reduction in CFU per cm2 at 5 times of MIC incubated upto 24 hrs; type: functional; details: time hrs <=24
Cell membrane [27] = assay: Effect on surface tension of Staphylococcus aureus CECT 976 assessed as electron donor component at 0.25 times of MIC incubated for 1 hr (reference value: 55 +/- 0.9 mJ/m2); type: subcellular
Staphylococcus aureus [28] = assay: Antibiofilm activity against Staphylococcus aureus CECT 976 preform-matured biofilm assessed as reduction in CFU at MIC incubated for 24 hrs; type: functional, organism-based
Cell membrane [29] = assay: Effect on surface tension of Staphylococcus aureus CECT 976 assessed as hydrophobicity at MIC incubated for 1 hr (reference value: 34.8 +/- 1.3 mJ/m2); type: subcellular

`CC(C)Cc1ccc(C(C)C(=O)O)cc1` (stereo unspecified) [IBUPROFEN] was tested, and the MIC (Staphylococcus aureus [1]) was 1600 µg/mL (≈ 7760 µM), the Activity (Cell membrane [2]) was 39.5 mJ/m2 and the “inhibition (INH)” value (Staphylococcus aureus [3]) was 42%. For the same compound, the “inhibition (INH)” value (Streptococcus pneumoniae) was 37%, the Activity (Staphylococcus aureus [4]) was 0% and the Activity (Cell membrane [5]) was 0.54 mg/L. The Activity (Staphylococcus aureus [6]) was 100%, the “inhibition (INH)” value (Staphylococcus aureus [7]) was 100% and the “inhibition (INH)” value (Staphylococcus aureus [8]) was 42%. For the same compound, the Activity (Cell membrane [9]) was 37.3 mJ/m2, the “inhibition (INH)” value (Escherichia coli) was 37% and the MIC (Staphylococcus aureus [10]) was 350 µg/mL (≈ 1700 µM). For the same compound, the “inhibition (INH)” value (Staphylococcus aureus [11]) was 39%, the Activity (Cell membrane [12]) was 0.49 mg/L and the Activity (Cell membrane [13]) was 49.7 mJ/m2. The MIC (Staphylococcus aureus [14]) was 500 µg/mL (≈ 2420 µM), the Activity (Cell membrane [15]) was 0.51 mg/L and the Activity (Staphylococcus aureus [16]) was “<=55%”. For the same compound, the MIC (Staphylococcus aureus [17]) was greater than 600 µg/mL, the Activity (Cell membrane [18]) was 13.8 mJ/m2 and the Activity (Staphylococcus aureus [19]) was “<=14%”. For the same compound, the Activity (Staphylococcus aureus [20]) was 0%, the Activity (Staphylococcus aureus [21]) was “<=55%” and the “inhibition (INH)” value (Staphylococcus aureus [22]) was “<=38.5%”. It also gave an MBC (Staphylococcus aureus [23]) greater than 2000 µg/mL, an MBC (Staphylococcus aureus [24]) of 1400 µg/mL (≈ 6790 µM) and an MIC (Staphylococcus aureus [25]) of 40 µg/mL (≈ 194 µM). For the same compound, the Activity (Staphylococcus aureus [26]) was 1.8 log10CFU, the Activity (Cell membrane [27]) was 48.8 mJ/m2 and the inhibition (Staphylococcus aureus [28]) was “Active”. The Activity (Cell membrane [29]) was 30.1 mJ/m2.
